Assay results from ChEMBL document CHEMBL5247614, “An overview of aryl hydrocarbon receptor ligands in the Last two decades (2002-2022): A medicinal chemistry perspective” (Eur J Med Chem, 2022).
pEC50, pIC50, pKd: −log10 of the molar value.

Tests used:
[1] = target: T1, Aryl hydrocarbon receptor (Homo sapiens, UniProt P35869); assay: Antagonist activity at AhR (unknown origin)
T1 sequence (P35869 whole entry): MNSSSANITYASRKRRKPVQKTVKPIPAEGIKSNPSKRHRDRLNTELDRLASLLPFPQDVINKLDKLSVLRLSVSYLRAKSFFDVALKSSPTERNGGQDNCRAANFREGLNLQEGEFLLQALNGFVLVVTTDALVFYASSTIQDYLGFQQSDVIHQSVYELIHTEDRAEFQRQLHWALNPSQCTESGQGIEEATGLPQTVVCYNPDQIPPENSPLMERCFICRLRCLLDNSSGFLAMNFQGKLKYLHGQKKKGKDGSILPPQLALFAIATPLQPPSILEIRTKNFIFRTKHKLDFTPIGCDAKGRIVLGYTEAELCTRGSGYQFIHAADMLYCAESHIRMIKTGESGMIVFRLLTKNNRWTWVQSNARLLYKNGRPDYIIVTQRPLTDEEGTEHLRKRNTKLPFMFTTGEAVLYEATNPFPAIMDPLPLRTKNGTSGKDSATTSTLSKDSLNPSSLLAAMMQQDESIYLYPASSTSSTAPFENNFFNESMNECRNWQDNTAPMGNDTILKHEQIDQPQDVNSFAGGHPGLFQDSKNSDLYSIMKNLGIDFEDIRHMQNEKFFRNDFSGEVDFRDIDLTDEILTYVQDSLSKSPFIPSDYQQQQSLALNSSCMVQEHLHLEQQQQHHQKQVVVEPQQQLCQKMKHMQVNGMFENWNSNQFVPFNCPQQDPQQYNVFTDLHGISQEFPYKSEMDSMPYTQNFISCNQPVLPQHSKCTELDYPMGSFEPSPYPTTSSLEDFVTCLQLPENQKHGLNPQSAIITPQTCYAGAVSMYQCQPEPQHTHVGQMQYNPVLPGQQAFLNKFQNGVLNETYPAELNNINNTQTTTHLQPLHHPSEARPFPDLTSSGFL

[2] = target: T1, Aryl hydrocarbon receptor; assay: Antagonist activity at AhR (unknown origin) assessed as inhibition of receptor activation
[3] = target: T1, Aryl hydrocarbon receptor; assay: Antagonist activity at AhR (unknown origin) assessed as inhibition of TCDD-induced luciferase activity
[4] = target: T1, Aryl hydrocarbon receptor; assay: Activation of human AhR expressed in Saccharomyces cerevisiae YCM3 coexpressing ARNT incubated for 18 hrs
[5] = target: T1, Aryl hydrocarbon receptor; assay: Agonist activity at AhR (unknown origin)
Saccharomyces cerevisiae = assay: Activation of transcription in yeast expressing AhR and ARNT; format: functional, organism-based
CYP1A1 [6] = assay: Upregulation of CYP1A1 gene expression in human MDA-MB-468 cells transfected with XRE plasmid containing AhR responsive luciferase construct and renilla luciferase assessed as fold change in gene expression at 1 uM incubated for 24 hrs by dual-glo luciferase assay relative to control; format: ADME, cell-based; settings: read-out: FC
CYP1A1 [7] = assay: Upregulation of CYP1A1 gene expression in human MDA-MB-468 cells transfected with XRE plasmid containing AhR responsive luciferase construct and renilla luciferase assessed as fold change in gene expression at 1 uM incubated for 1 hr by dual-glo luciferase assay relative to control; format: ADME, cell-based; settings: read-out: FC
[8] = target: T2, Aryl hydrocarbon receptor (Rattus norvegicus, UniProt P41738); assay: Antagonist activity at AhR in rat liver cytosol assessed as inhibition of TCDD-induced AhR/DNA complex formation by gel retardation assay; format: subcellular
T2 sequence (P41738 whole entry): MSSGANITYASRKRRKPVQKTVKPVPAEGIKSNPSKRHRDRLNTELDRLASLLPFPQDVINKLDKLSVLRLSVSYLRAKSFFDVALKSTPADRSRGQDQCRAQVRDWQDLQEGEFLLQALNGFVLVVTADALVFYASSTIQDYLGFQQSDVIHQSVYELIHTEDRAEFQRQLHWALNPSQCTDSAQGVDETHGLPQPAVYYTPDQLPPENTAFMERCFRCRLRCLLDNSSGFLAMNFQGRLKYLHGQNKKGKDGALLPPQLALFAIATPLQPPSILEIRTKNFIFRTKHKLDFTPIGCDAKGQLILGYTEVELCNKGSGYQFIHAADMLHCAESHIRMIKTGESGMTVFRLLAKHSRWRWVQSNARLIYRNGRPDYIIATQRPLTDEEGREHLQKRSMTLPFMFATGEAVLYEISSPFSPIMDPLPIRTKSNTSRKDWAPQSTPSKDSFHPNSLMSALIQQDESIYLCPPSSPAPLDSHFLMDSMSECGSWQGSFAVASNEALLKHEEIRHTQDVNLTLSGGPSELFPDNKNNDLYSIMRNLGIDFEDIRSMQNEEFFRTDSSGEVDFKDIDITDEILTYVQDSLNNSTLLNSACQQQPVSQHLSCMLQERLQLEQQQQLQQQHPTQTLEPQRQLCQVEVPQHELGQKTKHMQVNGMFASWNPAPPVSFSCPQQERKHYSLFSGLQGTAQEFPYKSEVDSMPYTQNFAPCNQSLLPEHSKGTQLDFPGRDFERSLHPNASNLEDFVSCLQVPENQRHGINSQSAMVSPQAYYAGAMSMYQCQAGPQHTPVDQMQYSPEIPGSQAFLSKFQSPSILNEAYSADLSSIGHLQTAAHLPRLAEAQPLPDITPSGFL

[9] = target: T2, Aryl hydrocarbon receptor; assay: Inhibition of TCDD binding to rat liver cytosol AhR; format: subcellular
[10] = Inhibition of kynurenic acid-induced CYP1A1 gene expression in human U-937 cells by qPCR analysis; format: ADME, cell-based
[11] = target: T1, Aryl hydrocarbon receptor; assay: Antagonist activity at AhR (unknown origin) expressed in human U87 cells assessed as inhibition of kynurenic acid-induced transactivation by Renilla/Firefly based dual-glo luciferase assay; format: cell-based
[12] = target: T1, Aryl hydrocarbon receptor
[13] = target: T1, Aryl hydrocarbon receptor; assay: Binding affinity to AhR (unknown origin) assessed as dissociation constant
[14] = target: T1, Aryl hydrocarbon receptor; assay: Modulator activity at AhR (unknown origin)

CC(C)c1cnn2c(N[C@@H]3CCc4[nH]c5ccccc5c4C3)nc(-c3cncc(F)c3)nc12
pIC50 [1]: > 6.30

Cc1[nH]c2ccccc2c1C
pIC50 [1]: 4.96

O=C1CC(C(=O)O)c2c1oc(=O)c1cc(O)c(O)c(O)c21 (centres undefined)
EC70 [2]: 3900 nM

Cc1ccccc1/N=N/c1ccc(NC(=O)c2ccnn2C)c(C)c1
pIC50 [3]: 7.52

Clc1cc2c(cc1Cl)Oc1cc(Cl)c(Cl)cc1O2 [2,3,7,8-TETRACHLORODIBENZO-P-DIOXIN]
pEC50 [4]: 8.05

O=c1c(Cc2c[nH]c3ccccc23)nccc2c1[nH]c1ccccc12
pEC50 [5]: 7.92

c1ccc2[nH]ccc2c1 [INDOLE]
pEC50 (Saccharomyces cerevisiae): 3.52

Nc1ccccc1N1C(=O)c2cccc3cccc(c23)C1=O
fold induction at 24 h, 1 µM (CYP1A1 [6]): 250
fold induction at 1 h, 1 µM (CYP1A1 [7]): 25

COc1ccc(-c2coc3ccccc3c2=O)cc1N
pIC50 [8]: 6.00
pIC50 [9]: 5.40

CC(CO)NC(=O)c1cc(-c2ccc(Cl)cc2)nn(-c2cccc(F)c2)c1=O (centres undefined)
pIC50 [10]: 4.15
pIC50 [11]: 7.40

O=C(NCC(O)C(F)(F)F)c1cc(-c2ccc(OC(F)(F)F)cc2)nn(-c2cccnc2)c1=O (centres undefined)
pIC50 [1]: 7.09

CC(C)n1cnc2c(NCCc3ccc(O)cc3)nc(-c3csc4ccccc34)nc21
pIC50 [12]: 6.90

c1ccc2c(Cc3c[nH]c4ccccc34)c[nH]c2c1 [ARUNDINE]
pKd [13]: 7.05
pEC50 [14]: 4.11

Cc1[nH]c2c(C)cccc2c1C
pIC50 [1]: 4.92

c1ccc2c(c1)Nc1nc3ccccc3c3ccnc-2c13
pEC50 [5]: 11.00

N[C@@H](Cc1c[nH]c2ccccc12)C(=O)O [TRYPTOPHAN]
pEC50 (Saccharomyces cerevisiae): 3.52

CCS(=O)(=O)c1ccc2oc(-c3ccc4ccccc4c3)nc2c1 [EZUTROMID]
pKd [13]: 7.30

c1ccc2c(c1)[nH]c1cc3c(cc12)[nH]c1ccccc13
pKd [13]: 9.72

O=C(O)Cc1c[nH]c2ccccc12 [INDOLE-3-ACETIC ACID]
pEC50 (Saccharomyces cerevisiae): 3.52

NCCc1c[nH]c2ccccc12 [TRYPTAMINE]
pEC50 (Saccharomyces cerevisiae): 3.52
